Tested on: K24384-001-R-PDC complex spheroids, viability
Assay: Anticancer human tumor K24384-001-R-PDC patient-derived pancreatic adenocarcinoma cell line growth inhibition [GQUAD]
Conditions: for IC50: curve of first compound; for viability, T/C: stronger effect = lower value
In short: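 Tumor cells were grown as complex spheroids with HUVEC endothelial cells and mesenchymal stem cells as stroma. G-quadruplex stabilizers were combined with targeted agents over half-log dilutions from near the clinical Cmax, or from 10 microM.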

[1] = second compound 0.0316 µM, first compound 0.0316 µM
[2] = second compound 0.0316 µM, first compound 0.1 µM
[3] = second compound 0.0316 µM, first compound 0.316 µM
[4] = second compound 0.0316 µM, first compound 1 µM
[5] = second compound 0.0316 µM, first compound 3.16 µM
[6] = second compound 0.0316 µM, first compound 10 µM
[7] = second compound 0.1 µM, first compound 0.0316 µM
[8] = second compound 0.1 µM, first compound 0.1 µM
[9] = second compound 0.1 µM, first compound 0.316 µM
[10] = second compound 0.1 µM, first compound 1 µM
[11] = second compound 0.1 µM, first compound 3.16 µM
[12] = second compound 0.1 µM, first compound 10 µM
[13] = second compound 0.316 µM, first compound 0.0316 µM
[14] = second compound 0.316 µM, first compound 0.1 µM
[15] = second compound 0.316 µM, first compound 0.316 µM
[16] = second compound 0.316 µM, first compound 1 µM
[17] = second compound 0.316 µM, first compound 3.16 µM
[18] = second compound 0.316 µM, first compound 10 µM
[19] = second compound 1 µM, first compound 0.0316 µM
[20] = second compound 1 µM, first compound 0.1 µM
[21] = second compound 1 µM, first compound 0.316 µM
[22] = second compound 1 µM, first compound 1 µM
[23] = second compound 1 µM, first compound 3.16 µM
[24] = second compound 1 µM, first compound 10 µM
[25] = second compound 3.16 µM, first compound 0.0316 µM
[26] = second compound 3.16 µM, first compound 0.1 µM
[27] = second compound 3.16 µM, first compound 0.316 µM
[28] = second compound 3.16 µM, first compound 1 µM
[29] = second compound 3.16 µM, first compound 3.16 µM
[30] = second compound 3.16 µM, first compound 10 µM
[31] = second compound 10 µM, first compound 0.0316 µM
[32] = second compound 10 µM, first compound 0.1 µM
[33] = second compound 10 µM, first compound 0.316 µM
[34] = second compound 10 µM, first compound 1 µM
[35] = second compound 10 µM, first compound 3.16 µM
[36] = second compound 10 µM, first compound 10 µM
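Note: spheroids exposed to compounds for seven days.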

Molecule `C#Cc1c(F)ccc2cc(O)cc(-c3ncc4c(N5CC6CCC(C5)N6)nc(OCC56CCCN5CC(F)C6)nc4c3F)c12` (stereo not drawn) + CN(C)c1ccc(Nc2c3ccc(NC(=O)CCN4CCCC4)cc3nc3cc(NC(=O)CCN4CCCC4)ccc23)cc1 has an IC50 (second compound 0.0316 µM) of 1050 nM, an IC50 (second compound 0.1 µM) of 1690 nM and an IC50 (second compound 0.316 µM) of 1520 nM. It also gave an IC50 (second compound 1 µM) of 1780 nM, an IC50 (second compound 3.16 µM) of 1750 nM and an IC50 (second compound 10 µM) of 1120 nM. The viability, T/C [1] was 101%, the viability, T/C [2] was 84.6% and the viability, T/C [3] was 68.1%. The viability, T/C [4] was 51.5%, the viability, T/C [5] was 32.5% and the viability, T/C [6] was 14.4%. For the same molecule, the viability, T/C [7] was 109%, the viability, T/C [8] was 105% and the viability, T/C [9] was 78.2%. For the same molecule, the viability, T/C [10] was 63.9%, the viability, T/C [11] was 36.1% and the viability, T/C [12] was 16%. It also gave a viability, T/C [13] of 87.7%, a viability, T/C [14] of 108% and a viability, T/C [15] of 85%. The viability, T/C [16] was 61.5%, the viability, T/C [17] was 31.1% and the viability, T/C [18] was 20.1%. The viability, T/C [19] was 104%, the viability, T/C [20] was 82.1% and the viability, T/C [21] was 90.4%. The viability, T/C [22] was 58.1%, the viability, T/C [23] was 38.7% and the viability, T/C [24] was 17.6%. The viability, T/C [25] was 89.3%, the viability, T/C [26] was 85.8% and the viability, T/C [27] was 92.3%. For the same molecule, the viability, T/C [28] was 61.9%, the viability, T/C [29] was 35.5% and the viability, T/C [30] was 14.4%. For the same molecule, the viability, T/C [31] was 92.5%, the viability, T/C [32] was 77% and the viability, T/C [33] was 68.5%. For the same molecule, the viability, T/C [34] was 55.1%, the viability, T/C [35] was 30.1% and the viability, T/C [36] was 7.21%.

In the case of `CC(=O)O[C@H]1C(=O)[C@@]2(C)[C@H]([C@H](OC(=O)c3ccccc3)[C@]3(O)C[C@H](OC(=O)[C@H](O)[C@@H](NC(=O)c4ccccc4)c4ccccc4)C(C)=C1C3(C)C)[C@]1(OC(C)=O)CO[C@@H]1C[C@@H]2O` + CN(C)c1ccc(Nc2c3ccc(NC(=O)CCN4CCCC4)cc3nc3cc(NC(=O)CCN4CCCC4)ccc23)cc1, the IC50 (second compound 0.0316 µM) is reported as less than 31.6 nM, the IC50 (second compound 0.1 µM) is reported as less than 31.6 nM and the IC50 (second compound 0.316 µM) is reported as less than 31.6 nM. The IC50 (second compound 1 µM) was less than 31.6 nM, the IC50 (second compound 3.16 µM) was less than 31.6 nM and the IC50 (second compound 10 µM) was less than 31.6 nM. For the same molecule, the viability, T/C [1] was 32.2%, the viability, T/C [2] was 22.9% and the viability, T/C [3] was 20.5%. For the same molecule, the viability, T/C [4] was 20.1%, the viability, T/C [5] was 22.4% and the viability, T/C [6] was 25.3%. The viability, T/C [7] was 34.5%, the viability, T/C [8] was 22.1% and the viability, T/C [9] was 18.5%. It also gave a viability, T/C [10] of 21.3%, a viability, T/C [11] of 20.7% and a viability, T/C [12] of 25.7%. For the same molecule, the viability, T/C [13] was 37.3%, the viability, T/C [14] was 22.4% and the viability, T/C [15] was 17.6%. The viability, T/C [16] was 19.8%, the viability, T/C [17] was 19.5% and the viability, T/C [18] was 25.7%. The viability, T/C [19] was 33.4%, the viability, T/C [20] was 23.7% and the viability, T/C [21] was 19.3%. It also gave a viability, T/C [22] of 19.9%, a viability, T/C [23] of 26.1% and a viability, T/C [24] of 27.5%. The viability, T/C [25] was 29.4%, the viability, T/C [26] was 20.7% and the viability, T/C [27] was 24.4%. For the same molecule, the viability, T/C [28] was 17.4%, the viability, T/C [29] was 23.2% and the viability, T/C [30] was 30.1%. It also gave a viability, T/C [31] of 38.2%, a viability, T/C [32] of 26.4% and a viability, T/C [33] of 24.9%. It also gave a viability, T/C [34] of 24.5%, a viability, T/C [35] of 33.9% and a viability, T/C [36] of 40.9%.

With `CCCS(=O)(=O)Nc1ccc(F)c(C(=O)c2c[nH]c3ncc(-c4ccc(Cl)cc4)cc23)c1F` + CN(C)c1ccc(Nc2c3ccc(NC(=O)CCN4CCCC4)cc3nc3cc(NC(=O)CCN4CCCC4)ccc23)cc1 the IC50 (second compound 0.0316 µM) was greater than 10000 nM, the IC50 (second compound 0.1 µM) was 9980 nM and the IC50 (second compound 0.316 µM) was greater than 10000 nM. It also gave an IC50 (second compound 1 µM) greater than 10000 nM, an IC50 (second compound 3.16 µM) of 9350 nM and an IC50 (second compound 10 µM) of 7840 nM. For the same molecule, the viability, T/C [1] was 110%, the viability, T/C [2] was 102% and the viability, T/C [3] was 129%. The viability, T/C [4] was 128%, the viability, T/C [5] was 138% and the viability, T/C [6] was 54%. The viability, T/C [7] was 98.5%, the viability, T/C [8] was 118% and the viability, T/C [9] was 113%. The viability, T/C [10] was 124%, the viability, T/C [11] was 150% and the viability, T/C [12] was 49.8%. It also gave a viability, T/C [13] of 93.5%, a viability, T/C [14] of 114% and a viability, T/C [15] of 124%. The viability, T/C [16] was 125%, the viability, T/C [17] was 144% and the viability, T/C [18] was 52%. It also gave a viability, T/C [19] of 102%, a viability, T/C [20] of 105% and a viability, T/C [21] of 117%. It also gave a viability, T/C [22] of 131%, a viability, T/C [23] of 154% and a viability, T/C [24] of 53.3%. For the same molecule, the viability, T/C [25] was 92.7%, the viability, T/C [26] was 101% and the viability, T/C [27] was 97.2%. The viability, T/C [28] was 128%, the viability, T/C [29] was 140% and the viability, T/C [30] was 46%. The viability, T/C [31] was 84.3%, the viability, T/C [32] was 114% and the viability, T/C [33] was 109%. It also gave a viability, T/C [34] of 149%, a viability, T/C [35] of 139% and a viability, T/C [36] of 31.3%.

In the case of `Cc1[nH]c2ccccc2c1CCNCc1ccc(/C=C/C(=O)NO)cc1` + CN(C)c1ccc(Nc2c3ccc(NC(=O)CCN4CCCC4)cc3nc3cc(NC(=O)CCN4CCCC4)ccc23)cc1, the IC50 (second compound 0.0316 µM) is reported as 139 nM, the IC50 (second compound 0.1 µM) is reported as 103 nM and the IC50 (second compound 0.316 µM) is reported as 101 nM. For the same molecule, the IC50 (second compound 1 µM) was 109 nM, the IC50 (second compound 3.16 µM) was 99.1 nM and the IC50 (second compound 10 µM) was 83.7 nM. It also gave a viability, T/C (second compound 0.0316 µM, first compound 0.000999 µM) of 106%, a viability, T/C (second compound 0.0316 µM, first compound 0.00316 µM) of 99% and a viability, T/C (second compound 0.0316 µM, first compound 0.00999 µM) of 101%. The viability, T/C [1] was 105%, the viability, T/C (second compound 0.0316 µM, first compound 0.0999 µM) was 67.5% and the viability, T/C [3] was 6.39%. It also gave a viability, T/C (second compound 0.1 µM, first compound 0.000999 µM) of 113%, a viability, T/C (second compound 0.1 µM, first compound 0.00316 µM) of 106% and a viability, T/C (second compound 0.1 µM, first compound 0.00999 µM) of 107%. The viability, T/C [7] was 105%, the viability, T/C (second compound 0.1 µM, first compound 0.0999 µM) was 51% and the viability, T/C [9] was 7.07%. The viability, T/C (second compound 0.316 µM, first compound 0.000999 µM) was 104%, the viability, T/C (second compound 0.316 µM, first compound 0.00316 µM) was 89.3% and the viability, T/C (second compound 0.316 µM, first compound 0.00999 µM) was 95.3%. It also gave a viability, T/C [13] of 100%, a viability, T/C (second compound 0.316 µM, first compound 0.0999 µM) of 50.4% and a viability, T/C [15] of 4.91%. The viability, T/C (second compound 1 µM, first compound 0.000999 µM) was 93.5%, the viability, T/C (second compound 1 µM, first compound 0.00316 µM) was 100% and the viability, T/C (second compound 1 µM, first compound 0.00999 µM) was 114%. For the same molecule, the viability, T/C [19] was 103%, the viability, T/C (second compound 1 µM, first compound 0.0999 µM) was 53.4% and the viability, T/C [21] was 5.91%. The viability, T/C (second compound 3.16 µM, first compound 0.000999 µM) was 96.4%, the viability, T/C (second compound 3.16 µM, first compound 0.00316 µM) was 101% and the viability, T/C (second compound 3.16 µM, first compound 0.00999 µM) was 104%. The viability, T/C [25] was 94.6%, the viability, T/C (second compound 3.16 µM, first compound 0.0999 µM) was 49.7% and the viability, T/C [27] was 6.33%. For the same molecule, the viability, T/C (second compound 10 µM, first compound 0.000999 µM) was 90.7%, the viability, T/C (second compound 10 µM, first compound 0.00316 µM) was 91.7% and the viability, T/C (second compound 10 µM, first compound 0.00999 µM) was 101%. The viability, T/C [31] was 97.1%, the viability, T/C (second compound 10 µM, first compound 0.0999 µM) was 41.8% and the viability, T/C [33] was 6.78%.

Source: PubChem BioAssay AID2060483 (Molecular Pharmacology Branch, DTP, NCI, 2025)
